Experimental data as given in the supplement of paper PMC10307832.

Key:
Assay in all cases: relative viability (nuclei count vs DMSO), 5 days (fraction); higher = more cells survive
AZ505 + Phenformin = compound: C1CCC(CC1)N(CCNCCC2=C3C(=C(C=C2)O)NC(=O)CO3)C(=O)CCNCCC4=CC(=C(C=C4)Cl)Cl [AZ505] + N=C(N)NC(=N)NCCc1ccccc1 [Phenformin] (partner 250 µM)
How it was run: (§1)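 Lung cancer cell lines were seeded in 1536-well plates and dosed by pin tool the next day, with either a single drug or a fixed anchor-drug dose combined with five library-drug doses (not always all listed) spaced in √10 steps. Five days later, one step fixed the cells and stained their nuclei (final 0.05% Triton X-100, 1% formaldehyde, 1 ug/ml Hoechst), and nuclei were counted on 4× images. Relative viability is the nuclei count in treated wells divided by the count in vehicle wells, and each value is the median of duplicate plates.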

Dactolisib + Vorinostat = compound: Cn1c(=O)n(-c2ccc(C(C)(C)C#N)cc2)c2c3cc(-c4cnc5ccccc5c4)ccc3ncc21 [Dactolisib] + O=C(CCCCCCC(=O)Nc1ccccc1)NO [Vorinostat] (partner 1 µM)
How it was run: as §1

Dactolisib + Pictilisib = compound: Cn1c(=O)n(-c2ccc(C(C)(C)C#N)cc2)c2c3cc(-c4cnc5ccccc5c4)ccc3ncc21 [Dactolisib] + CS(=O)(=O)N1CCN(Cc2cc3nc(-c4cccc5[nH]ncc45)nc(N4CCOCC4)c3s2)CC1 [Pictilisib] (partner 1 µM)
How it was run: as §1

Dactolisib + Trametinib = compound: Cn1c(=O)n(-c2ccc(C(C)(C)C#N)cc2)c2c3cc(-c4cnc5ccccc5c4)ccc3ncc21 [Dactolisib] + CC(=O)Nc1cccc(-n2c(=O)n(C3CC3)c(=O)c3c(Nc4ccc(I)cc4F)n(C)c(=O)c(C)c32)c1 [Trametinib] (partner 0.02 µM)
How it was run: as §1

NCI-H460
relative viability (AZ505 + Phenformin; first compound 0.08 µM): 0.448 | relative viability (AZ505 + Phenformin; first compound 0.253 µM): 0.534 | relative viability (AZ505 + Phenformin; first compound 0.8 µM): 0.48 | relative viability (AZ505 + Phenformin; first compound 2.53 µM): 0.482 | relative viability (AZ505 + Phenformin; first compound 8 µM): 0.551 | relative viability (Dactolisib + Vorinostat; first compound 0.002 µM): 0.643 | relative viability (Dactolisib + Vorinostat; first compound 0.006325 µM): 0.659 | relative viability (Dactolisib + Vorinostat; first compound 0.02 µM): 0.723 | relative viability (Dactolisib + Vorinostat; first compound 0.06325 µM): 0.127 | relative viability (Dactolisib + Vorinostat; first compound 0.2 µM): 0.173 | relative viability (Dactolisib + Pictilisib; first compound 0.002 µM): 0.423 | relative viability (Dactolisib + Pictilisib; first compound 0.006325 µM): 0.355 | relative viability (Dactolisib + Pictilisib; first compound 0.02 µM): 0.289 | relative viability (Dactolisib + Pictilisib; first compound 0.06325 µM): 0.302 | relative viability (Dactolisib + Pictilisib; first compound 0.2 µM): 0.306 | relative viability (Dactolisib + Trametinib; first compound 0.002 µM): 0.2 | relative viability (Dactolisib + Trametinib; first compound 0.006325 µM): 0.0901 | relative viability (Dactolisib + Trametinib; first compound 0.02 µM): 0.13 | relative viability (Dactolisib + Trametinib; first compound 0.06325 µM): 0.0463 | relative viability (Dactolisib + Trametinib; first compound 0.2 µM): 0.0358

NCI-H1944
relative viability (AZ505 + Phenformin; first compound 0.08 µM): 0.197 | relative viability (AZ505 + Phenformin; first compound 0.253 µM): 0.184 | relative viability (AZ505 + Phenformin; first compound 0.8 µM): 0.233 | relative viability (AZ505 + Phenformin; first compound 2.53 µM): 0.193 | relative viability (AZ505 + Phenformin; first compound 8 µM): 0.21 | relative viability (Dactolisib + Vorinostat; first compound 0.002 µM): 0.576 | relative viability (Dactolisib + Vorinostat; first compound 0.006325 µM): 0.56 | relative viability (Dactolisib + Vorinostat; first compound 0.02 µM): 0.492 | relative viability (Dactolisib + Vorinostat; first compound 0.06325 µM): 0.29 | relative viability (Dactolisib + Vorinostat; first compound 0.2 µM): 0.223 | relative viability (Dactolisib + Pictilisib; first compound 0.002 µM): 0.36 | relative viability (Dactolisib + Pictilisib; first compound 0.006325 µM): 0.334 | relative viability (Dactolisib + Pictilisib; first compound 0.02 µM): 0.305 | relative viability (Dactolisib + Pictilisib; first compound 0.06325 µM): 0.233 | relative viability (Dactolisib + Pictilisib; first compound 0.2 µM): 0.253 | relative viability (Dactolisib + Trametinib; first compound 0.002 µM): 0.429 | relative viability (Dactolisib + Trametinib; first compound 0.006325 µM): 0.408 | relative viability (Dactolisib + Trametinib; first compound 0.02 µM): 0.364 | relative viability (Dactolisib + Trametinib; first compound 0.06325 µM): 0.23 | relative viability (Dactolisib + Trametinib; first compound 0.2 µM): 0.22

NCI-H2009
relative viability (AZ505 + Phenformin; first compound 0.08 µM): 0.387 | relative viability (AZ505 + Phenformin; first compound 0.253 µM): 0.486 | relative viability (AZ505 + Phenformin; first compound 0.8 µM): 0.468 | relative viability (AZ505 + Phenformin; first compound 2.53 µM): 0.506 | relative viability (AZ505 + Phenformin; first compound 8 µM): 0.442 | relative viability (Dactolisib + Vorinostat; first compound 0.002 µM): 0.746 | relative viability (Dactolisib + Vorinostat; first compound 0.006325 µM): 0.719 | relative viability (Dactolisib + Vorinostat; first compound 0.02 µM): 0.704 | relative viability (Dactolisib + Vorinostat; first compound 0.06325 µM): 0.568 | relative viability (Dactolisib + Vorinostat; first compound 0.2 µM): 0.202 | relative viability (Dactolisib + Pictilisib; first compound 0.002 µM): 0.961 | relative viability (Dactolisib + Pictilisib; first compound 0.006325 µM): 0.853 | relative viability (Dactolisib + Pictilisib; first compound 0.02 µM): 0.727 | relative viability (Dactolisib + Pictilisib; first compound 0.06325 µM): 0.498 | relative viability (Dactolisib + Pictilisib; first compound 0.2 µM): 0.322 | relative viability (Dactolisib + Trametinib; first compound 0.002 µM): 0.276 | relative viability (Dactolisib + Trametinib; first compound 0.006325 µM): 0.272 | relative viability (Dactolisib + Trametinib; first compound 0.02 µM): 0.213 | relative viability (Dactolisib + Trametinib; first compound 0.06325 µM): 0.154 | relative viability (Dactolisib + Trametinib; first compound 0.2 µM): 0.126

201T
relative viability (AZ505 + Phenformin; first compound 0.08 µM): 0.446 | relative viability (AZ505 + Phenformin; first compound 0.253 µM): 0.445 | relative viability (AZ505 + Phenformin; first compound 0.8 µM): 0.501 | relative viability (AZ505 + Phenformin; first compound 2.53 µM): 0.468 | relative viability (AZ505 + Phenformin; first compound 8 µM): 0.477 | relative viability (Dactolisib + Vorinostat; first compound 0.002 µM): 0.987 | relative viability (Dactolisib + Vorinostat; first compound 0.006325 µM): 0.981 | relative viability (Dactolisib + Vorinostat; first compound 0.02 µM): 0.976 | relative viability (Dactolisib + Vorinostat; first compound 0.06325 µM): 0.622 | relative viability (Dactolisib + Vorinostat; first compound 0.2 µM): 0.729 | relative viability (Dactolisib + Pictilisib; first compound 0.002 µM): 0.753 | relative viability (Dactolisib + Pictilisib; first compound 0.006325 µM): 0.661 | relative viability (Dactolisib + Pictilisib; first compound 0.02 µM): 0.661 | relative viability (Dactolisib + Pictilisib; first compound 0.06325 µM): 0.538 | relative viability (Dactolisib + Pictilisib; first compound 0.2 µM): 0.539 | relative viability (Dactolisib + Trametinib; first compound 0.002 µM): 0.73 | relative viability (Dactolisib + Trametinib; first compound 0.006325 µM): 0.713 | relative viability (Dactolisib + Trametinib; first compound 0.02 µM): 0.688 | relative viability (Dactolisib + Trametinib; first compound 0.06325 µM): 0.668 | relative viability (Dactolisib + Trametinib; first compound 0.2 µM): 0.449

NCI-H23
relative viability (AZ505 + Phenformin; first compound 0.08 µM): 0.731 | relative viability (AZ505 + Phenformin; first compound 0.8 µM): 0.741 | relative viability (AZ505 + Phenformin; first compound 2.53 µM): 0.759 | relative viability (AZ505 + Phenformin; first compound 8 µM): 0.821 | relative viability (Dactolisib + Vorinostat; first compound 0.002 µM): 0.512 | relative viability (Dactolisib + Vorinostat; first compound 0.006325 µM): 0.49 | relative viability (Dactolisib + Vorinostat; first compound 0.02 µM): 0.462 | relative viability (Dactolisib + Vorinostat; first compound 0.06325 µM): 0.18 | relative viability (Dactolisib + Vorinostat; first compound 0.2 µM): 0.176 | relative viability (Dactolisib + Pictilisib; first compound 0.002 µM): 0.503 | relative viability (Dactolisib + Pictilisib; first compound 0.006325 µM): 0.529 | relative viability (Dactolisib + Pictilisib; first compound 0.02 µM): 0.37 | relative viability (Dactolisib + Pictilisib; first compound 0.06325 µM): 0.252 | relative viability (Dactolisib + Pictilisib; first compound 0.2 µM): 0.23 | relative viability (Dactolisib + Trametinib; first compound 0.002 µM): 0.468 | relative viability (Dactolisib + Trametinib; first compound 0.006325 µM): 0.361 | relative viability (Dactolisib + Trametinib; first compound 0.02 µM): 0.276 | relative viability (Dactolisib + Trametinib; first compound 0.06325 µM): 0.229 | relative viability (Dactolisib + Trametinib; first compound 0.2 µM): 0.179

LOU-NH91
relative viability (AZ505 + Phenformin; first compound 0.08 µM): 0.685 | relative viability (AZ505 + Phenformin; first compound 0.253 µM): 0.684 | relative viability (AZ505 + Phenformin; first compound 0.8 µM): 0.604 | relative viability (AZ505 + Phenformin; first compound 2.53 µM): 0.805 | relative viability (AZ505 + Phenformin; first compound 8 µM): 0.729 | relative viability (Dactolisib + Vorinostat; first compound 0.002 µM): 0.903 | relative viability (Dactolisib + Vorinostat; first compound 0.006325 µM): 0.898 | relative viability (Dactolisib + Vorinostat; first compound 0.02 µM): 0.784 | relative viability (Dactolisib + Vorinostat; first compound 0.06325 µM): 0.524 | relative viability (Dactolisib + Vorinostat; first compound 0.2 µM): 0.529 | relative viability (Dactolisib + Pictilisib; first compound 0.002 µM): 0.586 | relative viability (Dactolisib + Pictilisib; first compound 0.006325 µM): 0.499 | relative viability (Dactolisib + Pictilisib; first compound 0.02 µM): 0.525 | relative viability (Dactolisib + Pictilisib; first compound 0.06325 µM): 0.494 | relative viability (Dactolisib + Pictilisib; first compound 0.2 µM): 0.496 | relative viability (Dactolisib + Trametinib; first compound 0.002 µM): 0.778 | relative viability (Dactolisib + Trametinib; first compound 0.006325 µM): 0.714 | relative viability (Dactolisib + Trametinib; first compound 0.02 µM): 0.679 | relative viability (Dactolisib + Trametinib; first compound 0.06325 µM): 0.557 | relative viability (Dactolisib + Trametinib; first compound 0.2 µM): 0.612

NCI-H2085
relative viability (AZ505 + Phenformin; first compound 0.08 µM): 0.68 | relative viability (AZ505 + Phenformin; first compound 0.253 µM): 0.613 | relative viability (AZ505 + Phenformin; first compound 0.8 µM): 0.664 | relative viability (AZ505 + Phenformin; first compound 2.53 µM): 0.677 | relative viability (AZ505 + Phenformin; first compound 8 µM): 0.694 | relative viability (Dactolisib + Vorinostat; first compound 0.002 µM): 0.801 | relative viability (Dactolisib + Vorinostat; first compound 0.006325 µM): 0.742 | relative viability (Dactolisib + Vorinostat; first compound 0.02 µM): 0.712 | relative viability (Dactolisib + Vorinostat; first compound 0.06325 µM): 0.363 | relative viability (Dactolisib + Vorinostat; first compound 0.2 µM): 0.329 | relative viability (Dactolisib + Pictilisib; first compound 0.002 µM): 0.372 | relative viability (Dactolisib + Pictilisib; first compound 0.006325 µM): 0.472 | relative viability (Dactolisib + Pictilisib; first compound 0.02 µM): 0.352 | relative viability (Dactolisib + Pictilisib; first compound 0.06325 µM): 0.332 | relative viability (Dactolisib + Pictilisib; first compound 0.2 µM): 0.396 | relative viability (Dactolisib + Trametinib; first compound 0.002 µM): 0.712 | relative viability (Dactolisib + Trametinib; first compound 0.006325 µM): 0.455 | relative viability (Dactolisib + Trametinib; first compound 0.02 µM): 0.241 | relative viability (Dactolisib + Trametinib; first compound 0.06325 µM): 0.266 | relative viability (Dactolisib + Trametinib; first compound 0.2 µM): 0.231

COR-L23
relative viability (AZ505 + Phenformin; first compound 0.08 µM): 0.446 | relative viability (AZ505 + Phenformin; first compound 0.253 µM): 0.463 | relative viability (AZ505 + Phenformin; first compound 0.8 µM): 0.383 | relative viability (AZ505 + Phenformin; first compound 2.53 µM): 0.442 | relative viability (AZ505 + Phenformin; first compound 8 µM): 0.441 | relative viability (Dactolisib + Vorinostat; first compound 0.002 µM): 0.367 | relative viability (Dactolisib + Vorinostat; first compound 0.006325 µM): 0.363 | relative viability (Dactolisib + Vorinostat; first compound 0.02 µM): 0.277 | relative viability (Dactolisib + Vorinostat; first compound 0.06325 µM): 0.157 | relative viability (Dactolisib + Vorinostat; first compound 0.2 µM): 0.161 | relative viability (Dactolisib + Pictilisib; first compound 0.002 µM): 0.925 | relative viability (Dactolisib + Pictilisib; first compound 0.006325 µM): 0.656 | relative viability (Dactolisib + Pictilisib; first compound 0.02 µM): 0.546 | relative viability (Dactolisib + Pictilisib; first compound 0.06325 µM): 0.177 | relative viability (Dactolisib + Pictilisib; first compound 0.2 µM): 0.151 | relative viability (Dactolisib + Trametinib; first compound 0.002 µM): 0.602 | relative viability (Dactolisib + Trametinib; first compound 0.006325 µM): 0.453 | relative viability (Dactolisib + Trametinib; first compound 0.02 µM): 0.305 | relative viability (Dactolisib + Trametinib; first compound 0.06325 µM): 0.176 | relative viability (Dactolisib + Trametinib; first compound 0.2 µM): 0.144
